Consider eleven compounds from ChEMBL document CHEMBL1201862, “PubChem BioAssay data set” (2004).

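Protocol summary: plate cells (96-well), add compound at 5 concentrations, incubate 48 h, interpolate endpoints linearly. At the GI50, growth is halved.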 The source made the active and inactive calls. No stated cut-off is given here; in the data, active = GI50 up to about 1.1 µM and inactive = higher. A value given as a limit tells only on which side of the number the result lay.

What all share (experiment): growth of human tumour cells (NCI), 48 h
In assay [1] the test system is 786-0.
Assay [2] has as its system A549.
The subject of assay [3] is BT-549.
Assay [4] relates to COLO 205.
The subject of assay [5] is HCT-116.
For assay [6], the system named is HCT-15.
For assay [7], the system named is KM12.
The test system of assay [8] is MDA-MB-435.
Assay [9] deals with MDA-N.
Assay [10] has as its system NCI-H23.
Assay [11] deals with NCI-H460.
In assay [12] the test system is NCI-H522.
The test system of assay [13] is SF-268.
Assay [14] deals with SF-295.
Assay [15] concerns SK-MEL-28.
In assay [16] the test system is T47D.
The test system of assay [17] is HT-29.
Assay [18] relates to MOLT-4.
Assay [19] has as its system OVCAR-8.
Assay [20] has as its system LOX IMVI.

`Oc1ccc(-c2c3c(nc4c2CCc2ccc(Br)cc2-4)-c2cc(Br)ccc2CC3)cc1`: the GI50 was 18.9 µM (inactive) in assay [1]; 19.8 µM (inactive) in assay [2]; 24 µM (inactive) in assay [3]; 17.2 µM (inactive) in assay [4]; 24.4 µM (inactive) in assay [5]; 18.9 µM in assay [6]. Moreover, the GI50 was 19.7 µM (inactive) in [7]; 20 µM (inactive) in [8]; 18.6 µM (inactive) in [9]; 20.3 µM (inactive) in assay [10]; 22.5 µM (inactive) in [11]; 25.6 µM (inactive) in [12]. The GI50 was 21.7 µM (inactive) in [13], 16.2 µM (inactive) in assay [14], 20.6 µM (inactive) in [15] and 21.2 µM (inactive) in assay [16].

As to `Oc1ccccc1/C=N/N1C(=S)N(C23CC4CC(CC(C4)C2)C3)C(=N\c2ccccc2)/C1=N/c1ccccc1`, the GI50 in [1] was > 100 µM (inactive); in assay [2], > 100 µM (inactive); in [3] it was 38.9 µM (inactive); in assay [4] it was 94.4 µM (inactive); in [5], 14.1 µM (inactive); in [6], greater than 100 µM. Besides, the GI50 in [17] is 29.6 µM (inactive); in [7], > 100 µM (inactive); in assay [8], > 100 µM (inactive); in assay [9] it was > 100 µM (inactive); in [18] it was 3.92 µM (inactive); in assay [10], > 100 µM (inactive). Further, the GI50 was 71.8 µM (inactive) in assay [11]; 12.8 µM (inactive) in [12]; > 100 µM (inactive) in assay [19]; > 100 µM (inactive) in assay [13]; > 100 µM (inactive) in [14]; > 100 µM (inactive) in assay [15]. Further, the GI50 in assay [16] is 9.35 µM (inactive).

`CC1(c2ccc(Cl)cc2)c2ccccc2C(=O)N1CCCN1C(=O)c2ccccc2C1=O` (configuration not stated): the GI50 in assay [1] was 26.2 µM (inactive); in assay [2] it was 24.7 µM (inactive); in assay [3], > 100 µM (inactive); in [4] it was 18.5 µM (inactive); in assay [5], 13.6 µM (inactive); in assay [6], 34 µM. The GI50 is 32.2 µM (inactive) in assay [17]; 20.9 µM (inactive) in assay [7]; 19.6 µM (inactive) in assay [20]; 33.3 µM (inactive) in [8]; 58.7 µM (inactive) in assay [9]; 29.5 µM (inactive) in [18]. The GI50 was 25.4 µM (inactive) in [10]; 26.7 µM (inactive) in assay [19]; 40.6 µM (inactive) in assay [13]; 24.2 µM (inactive) in assay [14]; 69.5 µM (inactive) in assay [15]; 21.3 µM (inactive) in assay [16].

Consider `CSc1ncc2c(n1)-c1ccccc1OC2`, for which the GI50 in assay [1] was 72.6 µM (inactive); in assay [2], 52.2 µM (inactive); in assay [3], 43 µM (inactive); in assay [4], 92.3 µM (inactive); in assay [5], 70.8 µM (inactive); in assay [6] it was 51.2 µM. In addition, the GI50 was 40.4 µM (inactive) in assay [17]; > 100 µM (inactive) in assay [7]; 37.7 µM (inactive) in [20]; 56.4 µM (inactive) in [8]; 57.1 µM (inactive) in assay [9]; 50 µM (inactive) in assay [18]. In addition, the GI50 in assay [10] is 84.3 µM (inactive); in assay [11], 42.9 µM (inactive); in assay [12], 44.5 µM (inactive); in assay [19], 79.1 µM (inactive); in assay [13] it was 49.4 µM (inactive); in assay [14], 94.2 µM (inactive). Besides, the GI50 in assay [16] was 15.9 µM (inactive).

Consider `CC1(C)C(C#N)C1C1=C(N2CCOCC2)[C@]2(C)C(OC(=O)c3ccccc3)CC[C@@H]2C1` (some centres not stated), for which the GI50 was > 100 µM (inactive) in [1]; > 100 µM (inactive) in assay [2]; 55.1 µM (inactive) in assay [3]; 95.3 µM (inactive) in assay [4]; 33.7 µM (inactive) in [5]; greater than 100 µM in [6]. Also, the GI50 in assay [17] was 50.1 µM (inactive); in assay [7], > 100 µM (inactive); in assay [8], > 100 µM (inactive); in assay [9], > 100 µM (inactive); in assay [18], 34.9 µM (inactive); in assay [10] it was > 100 µM (inactive). For the same compound, the GI50 in assay [11], in [12], in assay [19], in [13], in assay [14] and in assay [15] was > 100 µM (inactive) throughout. Moreover, the GI50 in assay [16] was 35.5 µM (inactive).

On to `COc1ccccc1C[C@@H]1OC2(C=CC(=O)C=C2)O[C@H]1Cc1ccccc1OC`, for which the GI50 was 1.39 µM (inactive) in assay [1]; 21.7 µM (inactive) in assay [2]; 2.64 µM (inactive) in assay [3]; 8.11 µM (inactive) in assay [4]; 1.09 µM (active) in [5]; 5.21 µM in [6]. Also, the GI50 is 9.02 µM (inactive) in [17]; 8.69 µM (inactive) in [7]; 6.14 µM (inactive) in [20]; 14.3 µM (inactive) in assay [8]; 6 µM (inactive) in assay [9]; 2.04 µM (inactive) in [18]. For the same compound, the GI50 was 8.75 µM (inactive) in [10]; 23 µM (inactive) in assay [11]; 1.27 µM (inactive) in assay [19]; 7.35 µM (inactive) in assay [13]; 11 µM (inactive) in assay [14]; 8.81 µM (inactive) in assay [15]. Also, the GI50 in assay [16] is 19.2 µM (inactive).

Turning to `CC(=O)C1(O)Cc2c(O)c3c(c(O)c2C(OC2CC(N)C(O)C(C)O2)C1)C(=O)c1ccccc1C3=O` (configuration not stated), the GI50 is 0.0152 µM (active) in [1]; 0.0248 µM (active) in [2]; 0.134 µM (active) in assay [3]; 0.0796 µM (active) in assay [4]; 0.0279 µM (active) in assay [5]; 0.0277 µM in assay [6]. The GI50 was 0.0252 µM (active) in assay [17]; 0.0498 µM (active) in [7]; 0.01 µM (active) in [20]; 0.12 µM (active) in assay [8]; 0.112 µM (active) in assay [9]; 0.01 µM (active) in [18]. The GI50 in assay [10] is 0.0227 µM (active); in [11], 0.000569 µM (active); in [12], 0.015 µM (active); in assay [19], 0.0327 µM (active); in assay [13] it was 0.0215 µM (active); in assay [14] it was 0.0141 µM (active). Besides, the GI50 in assay [16] is 0.0497 µM (active).

With `Cc1nc(C)c(C(=O)NNC(=O)Cc2ccccc2)cc1C(=O)NNC(=O)Cc1ccccc1`, the GI50 in assay [1] is > 100 µM (inactive); in assay [2], > 100 µM (inactive); in assay [3], > 100 µM (inactive); in [4], > 100 µM (inactive); in assay [5], > 100 µM (inactive); in assay [6], greater than 100 µM. Besides, the GI50 in assay [17], in [7], in assay [20], in [8], in assay [9] and in assay [18] was > 100 µM (inactive) each time. Moreover, the GI50 in assay [10], in [11], in [12], in assay [19], in [13] and in assay [14] was > 100 µM (inactive) each time. Besides, the GI50 in assay [16] is > 100 µM (inactive).

`O=c1oc2c(ccc3c(O)cccc32)c2c1CCCC2`: the GI50 in [1] was 33.4 µM (inactive); in [2] it was 72.3 µM (inactive); in [3] it was 15.1 µM (inactive); in [4], > 100 µM (inactive); in assay [5] it was > 100 µM (inactive); in assay [17] it was > 100 µM (inactive). Moreover, the GI50 in assay [7] was > 100 µM (inactive); in [20] it was 16.7 µM (inactive); in assay [8] it was > 100 µM (inactive); in [9], > 100 µM (inactive); in assay [18], > 100 µM (inactive); in [10] it was 26.9 µM (inactive). Moreover, the GI50 in assay [11] was 45.2 µM (inactive); in assay [12] it was 40 µM (inactive); in [19] it was 30.6 µM (inactive); in [13], 15 µM (inactive); in [14], 14.5 µM (inactive); in assay [15], > 100 µM (inactive). For the same compound, the GI50 in [16] was 80.9 µM (inactive).

With `O=C1/C(=C/c2ccc(Cl)cc2)Oc2cc(O)ccc21` [6-HYDROXY-4'-CHLORO AURONE], the GI50 in assay [1] was 33.3 µM (inactive); in [2], 30.1 µM (inactive); in assay [3], 26.8 µM (inactive); in assay [4] it was > 100 µM (inactive); in assay [5], 30.5 µM (inactive); in [6] it was 32.6 µM. In addition, the GI50 in [7] is 38.5 µM (inactive); in assay [8], 36.1 µM (inactive); in assay [9], 30.2 µM (inactive); in assay [18], 19.6 µM (inactive); in assay [10] it was 36.2 µM (inactive); in assay [11], 25.1 µM (inactive). Besides, the GI50 was 23.8 µM (inactive) in [12]; 31.9 µM (inactive) in assay [19]; 52.8 µM (inactive) in assay [13]; 38.4 µM (inactive) in assay [14]; 59.6 µM (inactive) in assay [15]; 37.1 µM (inactive) in assay [16].

`CC1(C)CC(O)CC(C)(C)N1O` [TEMPOL HYDROXYLAMINE]: the GI50 in [1] is > 100 µM (inactive); in assay [2], > 100 µM (inactive); in assay [3], > 100 µM (inactive); in [4], > 100 µM (inactive); in assay [5], > 100 µM (inactive); in assay [6], greater than 100 µM. Also, the GI50 in assay [17], in assay [7], in assay [8], in assay [9], in assay [18] and in assay [11] was > 100 µM (inactive) throughout. Further, the GI50 in assay [19], in [13], in assay [14], in assay [15] and in assay [16] was > 100 µM (inactive) in each case.
